Assays:
[1] = tested on: T. cruzi; parameters: method as in PMID 9705954, PMID 17698625, PMID 16304193; details: immunocompetent and immunodeficient mice, dogs; cited from earlier work
[2] = target: T1, Cruzipain (Trypanosoma cruzi, UniProt P25779); assay type: biochemical; details: for Hit call by statistically robust cutoff (µC+ − 3 × SDC+): compound 25 µM, singlet
T1 construct: Cruzipain (CZP) was purified to homogeneity from epimastigotes of the Tul 2 strain; from tissue; host or cells: Trypanosoma cruzi epimastigotes, Tul 2 strain (natural enzyme, not recombinant)
Protocol: (§1) Assay was performed in a solid black 384-well plate (final reaction volume ~80 μL) and the release of 7-amino-4-methylcoumarin was monitored continuously at 30 °C with a Beckman Coulter DTX 880 Multimode Reader (Radnor, Pennsylvania, USA) using standard 340 nm excitation and 450 nm emission filter set. Final substrate concentration was set to 2 μM to match previously reported conditions[31] and being close to the KM value for this substrate. Optimal Cruzipain assay concentration (5.8 nM) was selected from 2-fold serial dilutions to match three criteria: (i) being linearly proportional to V0, (ii) display robust signal evolution at 2 μM substrate concentration and (iii) display linear kinetics for enough time to perform several reading cycles (at least 10 cycles, minimum time between cycles: 264 sec) through the 384-wells. In all cases, E-64(final concentration 125 nM) was used as positive inhibition control.
To perform the high-throughput screening, 1 μL of each compound (2 mM in DMSO), E-64 (10 μM in DMSO) or DMSO (negative controls) were dispensed into 384-well Corning black solid-bottom assay plates. Then, 40 μL of 100 mM NaAc, 5 mM DTT, 0.01% Triton X-100 pH 5.5 containing Cruzipain (11,6 nM) were added to each well, plates were homogenized (30 seg, orbital, medium intensity) and each well subjected to a single autofluorescence read (exc/ems = 340/450 nm). Plates were incubated in darkness for 15 min at 30 °C and then 40 μL of Z-FR-AMC (4 μM) in assay buffer were added to each well to start the reaction. After homogenization (30 seg, orbital, medium intensity), the fluorescence of AMC (exc/ems = 340/450 nm) was acquired kinetically for each well (12 read cycles, one cycle every 300 seconds).
Raw screening measurements were used to determine the slope (dF/dt) of progression curves by linear regression for control and compound wells. In the case of control-dependent hit selection criterium, percent inhibition (%Inh) was calculated for each compound according to Eq. 6:6 %Inh=100⋅[1−(dF/dt^WELL−µ^C−)/(µ^C+−µ^C−)] where dF/dt^WELL represents the slope of each compound well and µ^C+ and µ^C− the average of Cruzipain (no-inhibition) and substrate (no-enzyme) controls, respectively.

[3] = target: T1, Cruzipain; assay type: biochemical; details: for Ki (tight-binding, suggested from IC50 in the order of the enzyme concentration): estimate from IC50 values; for Behavior of dose-response curve: compound 62.5 µM – 7.5 pM
Protocol: as §1
To avoid any positional and/or association bias, we randomly defined the row position for each compound. One μL of compounds stock (10 mM in DMSO) and E-64 (10 mM in DMSO) were added to the first well of column 1, followed by addition of 40 μL of 100 mM NaAc, 5 mM DTT, 0.01% Triton X-100 pH 5.5 buffer. After addition of 20 μL of the same buffer to subsequent wells of the plate, 22 serial 2-fold dilutions were made horizontally. The last two positions of every row were used, alternatively, for C^+ and C^− controls to reduce any positional and/or association bias. Then, 20 μL of activity buffer containing Cruzipain ([…]) were added to each well, except for those corresponding to C^−; completed with 20 μL of activity buffer. After homogenization, 15 minutes of incubation at 30 °C and autofluorescence measurement, 40 μL of a 4 μM solution of Z-FR-AMC substrate (in activity buffer) was added to the previous mix. Data collection and processing were performed exactly as described above. Percentage of Cruzipain residual activity was calculated for each condition according to Eq. 7:7 %Res.Act.^CRUZIPAIN=100⋅[(dF/dt^WELL−µ^C−)/(µ^C+−µ^C−)] where dF/dt^WELL represents the slope of each compound well and µ^C+ and µ^C− the average of Cruzipain (no-inhibition) and substrate (no-enzyme) controls, respectively. The IC50 and Hill slope parameters for each compound were estimated by fitting the four-parameter Hill equation to experimental data from dose-response curves using the GraphPad Prism program (version 5.03).

[4] = target: T1, Cruzipain; test: biochemical; details: Cruzipain 11.6 nM; for IC50: Z-FR-AMC 2 μM, pH 5.5, 30 °C, 15 min preincubation, four-parameter Hill fit; for Hill Slope: four-parameter Hill fit of dose-response curve
[5] = tested on: T. cruzi intracellular amastigotes; parameters: method as in PMID 25740547; details: T. cruzi intracellular amastigotes vs T. brucei axenic bloodstream forms; cited from earlier work
[6] = target: T1, Cruzipain; assay type: biochemical; details: E-64 1 nM, Cruzipain 5.8 nM, 24 replicates
Protocol: as §1, with “In all cases, E-64(final concentration 125 nM) was used as positive inhibition control.” left out

T1 sequence (P25779 123-467): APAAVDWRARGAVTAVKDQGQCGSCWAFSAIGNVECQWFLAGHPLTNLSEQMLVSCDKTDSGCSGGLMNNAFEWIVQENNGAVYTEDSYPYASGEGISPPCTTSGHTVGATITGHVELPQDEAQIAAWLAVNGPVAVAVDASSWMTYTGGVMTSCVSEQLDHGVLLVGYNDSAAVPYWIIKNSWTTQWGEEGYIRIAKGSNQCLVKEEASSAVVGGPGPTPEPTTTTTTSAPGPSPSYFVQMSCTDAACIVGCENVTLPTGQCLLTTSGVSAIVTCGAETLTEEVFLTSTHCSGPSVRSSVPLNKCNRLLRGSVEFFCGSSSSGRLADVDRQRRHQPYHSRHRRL

SMILES	Hit call by statistically robust cutoff (µC+ − 3 × SDC+) [2]	IC50 [4] [µM]	Hill Slope [4]	other results
CN1CCN(C(=O)N[C@@H](Cc2ccccc2)C(=O)N[C@H](/C=C/S(=O)(=O)c2ccccc2)CCc2ccccc2)CC1 [Compound K777, N-[(2 S)-1-[[(E,3 S)-1-(benzenesulfonyl)-5-phenylpent-1-en-3-yl]amino]-1-oxo-3-phenylpropan-2-yl]-4-methylpiperazine-1-carboxamide]				Efficacy in preclinical models of T. cruzi infection [1]: efficacious
Cl.Cl.O=c1ccc2ccc(F)c3c2n1C[C@H]3CN1CCN(CC(O)c2cc3c(cn2)OCS3)CC1 (stereo partly shown) [TCMDC-143158]	positive hits			
CC(C)C[C@H](NC(=O)c1ccc(-c2ccccc2)o1)C(=O)NC1(C#N)CC1 [TCMDC-143393]		0.0303	−0,957	IC50 range against Cruzipain, in words [3]: submicromolar range; Ki (tight-binding, suggested from IC50 in the order of the enzyme concentration) [3]: 1 to 4 × 10^−8 M; IC50 against T. cruzi relative to T. brucei [5]: between one and two orders of magnitude higher
NC(N)=Nc1nc(-c2ccc(NC(N)=NCCN3CCCC3)cc2)cs1 [TCMDC-143640]		3390	−0,9825	
COc1ccc2nccc([C@H](O)CN3CC[C@H](NC(=O)c4ccc(Br)cc4)[C@@H](O)C3)c2n1 [TCMDC-143527]	positive hits			
COc1cc(F)c2ncc(F)c(CCN3CC[C@H](NCc4cc5c(cn4)OCS5)[C@@H](O)C3)c2c1 [TCMDC-143510]		16.1	−0,7998	
CC(C)C[C@H](NC(=O)[C@H]1O[C@@H]1C(=O)O)C(=O)NCCCCN=C(N)N (relative stereo) [Compound E-64, trans-epoxysuccinyl-L-leucylamido-(4-guanidino)butane, reference compound]				E-64 Control activity slope, Mean, Plate 2 ([2]; E-64 final concentration 125 nM, Cruzipain control 210.84): 6.36 RFU/sec; E-64 Control activity slope, Mean, Plate 1 ([2]; E-64 final concentration 125 nM, Cruzipain control 893.31): 19.30 RFU/sec; average inhibition with respect to Cruzipain control [6]: 9.87%
NCC(Cc1ccccc1)NC(=O)c1cnc(-c2c[nH]c3ncccc23)s1.O=C(O)C(F)(F)F.O=C(O)C(F)(F)F (stereo not shown) [TCMDC-143176]				Behavior of dose-response curve [3]: activation phenotype at highest concentrations
COc1ccc2ncc(Cl)c(CCN3CCC(NCc4cc5c(cn4)OCS5)C(O)C3)c2n1 (stereo not shown) [TCMDC-143513]		14.9	−0,8108	
CC1(Oc2cncc(Cl)c2)CCN(Cc2cc3ccccc3[nH]2)C1 (stereo not shown) [TCMDC-143162]	positive hits			
COc1ccc2ncc(=O)n(CCN3CC[C@H](NCc4ncc(Cl)c5[nH]ncc45)[C@H](O)C3)c2n1 [TCMDC-143373]	positive hits			Behavior of dose-response curve [3]: erratic behavior
COc1ccc(OC)c(S(=O)(=O)N(Cc2c(F)cccc2F)C2CCN(C#N)C2)c1 (stereo not shown) [TCMDC-143370]		5650	−0,7542	IC50 range against Cruzipain, in words [3]: low micromolar range
COc1cc(OC)cc(C(=O)N[C@@H](CC(C)C)C(=O)NC2(C#N)CC2)c1 [TCMDC-143390]		0.0678	−0,9354	IC50 range against Cruzipain, in words [3]: submicromolar range; Ki (tight-binding, suggested from IC50 in the order of the enzyme concentration) [3]: 1 to 4 × 10^−8 M
